Data taken from patent US20220315624A1, “THIOSTREPTON ANALOGS AND METHODS OF MAKING AND USING SAME” (YALE UNIVERSITY, priority 2019, published 2022).
≈ marks a conversion by molar mass, not a printed value. Where two headings read alike, the source gives them in different places.

Columns and labels:
[1] = Aqueous solubility analysis in MOPS buffer; assay type: physicochemical; conditions: thermodynamic from solid; after 24 hours in 10 mM aqueous MOPS buffer, pH 7.2
Experimental: A 2 dram vial was loaded with ˜0.5 mg of a thiostrepton derivative and suspended in ˜4 mL of aqueous 10 mM MOPS buffer (pKa 7.2). The suspension was stirred vigorously for 24 h to ensure equilibration, then filtered through a […] centrifuge filtration unit. A 3.0 mL aliquot was concentrated, and the dried residue was diluted with 0.30 mL of 1:1 1,4-dioxane/H2O (10× original concentration necessitated by detection limits). The total UV absorbance (200-300 nm) was measured in triplicate by UPLC runs with a photodiode array detector. A calibration curve for each compound was created using data points from 3 trials each of concentrations in 1:1 1,4-dioxane/H2O ranging from […]. These concentrations were plotted against their respective average absorbances. The experimental concentration of each compound was calculated by dividing the found μg/mL value by the residue concentration factor of 10 to yield the actual solubility value.

[2] = tested on: E. faecium MMX 485 VRE; assay: MIC broth microdilution; assay type: cell-based; conditions: Enterococcus faecium
Experimental: (§1) Twenty-four test agents were shipped to Micromyx and stored at −20° C. until assayed. The compounds were dissolved in 100% DMSO at 6.46 mg/mL prior to testing. Comparator drugs were supplied by Micromyx and were handled as described below:
(§2) The test organisms for the assay were recent clinical isolates or reference strains acquired from the American Type Culture Collection (ATCC; Manassas, Va.). Upon receipt, the isolates were streaked onto Trypticase Soy Agar II+5% sheep blood (TSAB). Colonies were harvested from the plates and a cell suspension was prepared in Trypticase Soy Broth containing cryoprotectant. Aliquots were then frozen at −80° C. Prior to the assay, the frozen seeds of all bacterial isolates to be tested were thawed and streaked for isolation onto TSAB (BD/BBL, Sparks, Md.; Lot No. 9011894), and were incubated overnight at 35° C.
(§3) The test medium for all isolates was cation-adjusted Mueller Hinton broth (CAMHB; BD/BBL; Lot No. 8190586). CAMHB (Cation Adjusted Mueller Hinton Broth) was supplemented with 3% (v/v) lysed horse blood (LHB; Hemostat, Dixon, Calif.; Lot No. 474990) for the testing of streptococci.
(§4) MIC values were determined using a broth microdilution method as recommended by CLSI. Automated liquid handlers (Multidrop 384, Labsystems, Helsinki, Finland; Biomek 2000 and Biomek F/X, Beckman Coulter, Fullerton Calif.) were used to conduct serial dilutions and make liquid transfers.
(§5) The wells of standard 96-well microdilution plates (Costar 3795, Corning Inc., Corning, N.Y.) were filled with 150 μL of the appropriate diluent in columns 2-12 on the Multidrop 384 (DMSO for the thiostrepton analogs, deionized H2O for vancomycin and ceftazidime). These plates were used to prepare the drug “mother plate” which provided the serial drug dilutions for the replicate “daughter plates”. The compounds (300 μL) were dispensed at 101× the highest concentration to be tested into the appropriate row of the “mother plate”. The Biomek 2000 was used to transfer 150 μL of each stock solution from the wells in Column 1 of the mother plate to make ten subsequent 2-fold serial dilutions. The wells of Column 12 contained no drug and served as the organism growth control wells. The daughter plates were loaded with 190 μL of test medium using the Multidrop 384.
(§6) The daughter plates were prepared on the Biomek F/X instrument which transferred […] of drug solution from each well of the mother plate to each corresponding well of each daughter plate in a single step. The wells of the daughter plates ultimately contained 190 μL of media, 2 μL of drug solution, and 10 μL of inoculum prepared as described below. The final concentration of DMSO (if used as a solvent) in the test well was 1%.
(§7) A standardized inoculum of each organism was prepared per CLSI methods. A suspension of organisms from a fresh plate was prepared in CAMHB to equal the turbidity of a 0.5 McFarland standard. The suspensions were diluted 1:20 in CAMHB, or in the case of streptococci CAMHB with LHB. The inoculum for each organism was dispensed into sterile reservoirs divided by length (Beckman Coulter), and the Biomek 2000 was used to inoculate the plates. Daughter plates were placed on the Biomek 2000 work surface reversed so that inoculation took place from low to high drug concentration. The Biomek 2000 delivered 10 μL of standardized inoculum into each well. These dilutions yielded a final cell concentration in the daughter plates of approximately 5.0×10^5 CFU/mL.
(§8) Plates were stacked 3 high, covered with a lid on the top plate, placed in plastic bags, and incubated at 35° C. for 16-20 hr for all organisms except streptococci which were incubated for 20-24 hr. Following incubation, the microplates were removed from the incubator and viewed from the bottom using a plate viewer. The MIC was read and recorded as the lowest concentration of drug that inhibited visible growth of the organism. […]

[3] = tested on: S. pyogenes ATCC 19615; assay: MIC broth microdilution; assay type: cell-based; conditions: Streptococcus pyogenes, ATCC19615, 20 h
Experimental: as §1, §2, §3, §4, §5, §6, §7, §8

[4] = tested on: S. aureus MMX 8088 MRSA; assay: MIC broth microdilution; assay type: cell-based; conditions: Staphylococcus aureus
Experimental: as §1, §2, §3, §4, §5, §6, §7, §8

[5] = tested on: S. pneumoniae ATCC 49619 PISP; assay: MIC broth microdilution; assay type: cell-based; conditions: Streptococcus pneumoniae, ATCC49619, 20 h
Experimental: as §1, §2, §3, §4, §5, §6, §7, §8

[6] = tested on: E. faecalis ATCC 29212 VSE; assay: MIC broth microdilution; assay type: cell-based; conditions: Enterococcus faecalis, ATCC29212
Experimental: as §1, §2, §3, §4, §5, §6, §7, §8

[7] = tested on: E. coli ATCC 25922; assay: MIC broth microdilution; assay type: cell-based; conditions: Escherichia coli, ATCC25922
Experimental: as §1, §2, §3, §4, §5, §6, §7, §8

[8] = tested on: E. faecium MMX 708 VSE; assay: MIC broth microdilution; assay type: cell-based; conditions: Enterococcus faecium, MMX708VSE
Experimental: as §1, §2, §3, §4, §5, §6, §7, §8

[9] = tested on: S. aureus ATCC 29213 MSSA; assay: MIC broth microdilution; assay type: cell-based; conditions: Staphylococcus aureus
Experimental: as §1, §2, §3, §4, §5, §6, §7, §8

[10] = tested on: E. faecalis MMX 486 VRE; assay: MIC broth microdilution; assay type: cell-based; conditions: Enterococcus faecalis
Experimental: as §1, §2, §3, §4, §5, §6, §7, §8

[11] = Un-inoculated solubility control plate (drug precipitation); assay type: physicochemical

Structure (SMILES)	MIC ([2]; VRE) [µg/mL]	MIC [3] [µg/mL]	MIC ([4]; MRSA) [µg/mL]	MIC [5] [µg/mL]	MIC [6] [µg/mL]	MIC [7] [µg/mL]	MIC [8] [µg/mL]	MIC [9] [µg/mL]	MIC ([10]; VRE) [µg/mL]	further results
C=C(NC(=O)c1csc(C2=N[C@@H]3c4csc(n4)[C@H]4NC(=O)c5csc(n5)[C@H]([C@](C)(O)[C@@H](C)O)NC(=O)C5CSC(=N5)/C(=C/C)NC(=O)[C@H]([C@@H](C)O)NC(=O)c5csc(n5)[C@]3(CC2)NC(=O)[C@H](C)NC(=O)C(=C)NC(=O)[C@H](C)NC(=O)[C@H]([C@@H](C)CC)N[C@@H]2C=Cc3c([C@H](C)O)cc(nc3[C@H]2O)C(=O)O[C@@H]4C)n1)C(=O)NC(=CNC(=O)c1ccccc1)C(N)=O [RJS-02]	0.5 (≈ 0.28 µM)	0.002 (≈ 0.00112 µM)	2 (≈ 1.12 µM)	0.008 (≈ 0.00448 µM)	1 (≈ 0.561 µM)	> 64	0.5 (≈ 0.28 µM)	1 (≈ 0.561 µM)	1 (≈ 0.561 µM)	solubility at 24 h [1]: < 1 µg/mL
C=C(NC(=O)c1csc(C2=N[C@@H]3c4csc(n4)[C@H]4NC(=O)c5csc(n5)[C@H]([C@](C)(O)[C@@H](C)O)NC(=O)C5CSC(=N5)/C(=C/C)NC(=O)[C@H]([C@@H](C)O)NC(=O)c5csc(n5)[C@]3(CC2)NC(=O)[C@H](C)NC(=O)C(=C)NC(=O)[C@H](C)NC(=O)[C@H]([C@@H](C)CC)N[C@@H]2C=Cc3c([C@H](C)O)cc(nc3[C@H]2O)C(=O)O[C@@H]4C)n1)C(=O)NC(=CNC(=O)c1ccc(OC)cc1)C(N)=O [RJS-07]	1 (≈ 0.551 µM)	0.004 (≈ 0.0022 µM)	2 (≈ 1.1 µM)	0.004 (≈ 0.0022 µM)	2 (≈ 1.1 µM)	> 64	1 (≈ 0.551 µM)	1 (≈ 0.551 µM)	1 (≈ 0.551 µM)	
C=C(NC(=O)c1csc(C2=N[C@@H]3c4csc(n4)[C@H]4NC(=O)c5csc(n5)[C@H]([C@](C)(O)[C@@H](C)O)NC(=O)C5CSC(=N5)/C(=C/C)NC(=O)[C@H]([C@@H](C)O)NC(=O)c5csc(n5)[C@]3(CC2)NC(=O)[C@H](C)NC(=O)C(=C)NC(=O)[C@H](C)NC(=O)[C@H]([C@@H](C)CC)N[C@@H]2C=Cc3c([C@H](C)O)cc(nc3[C@H]2O)C(=O)O[C@@H]4C)n1)C(=O)NC(=CNC(=O)c1ccc(Br)cc1)C(N)=O [RJS-08]										Precipitation in CAMHB ([11]; at 64 μg/mL in CAMHB): distinct precipitation; Precipitation in CAMHB in LHB ([11]; at 64 μg/mL in CAMHB in LHB): distinct precipitation; MIC ([2]; E. faecium MMX 485 VRE, CAMHB, read-out: MIC): 0.5 µg/mL (≈ 0.268 µM); MIC ([3]; S. pyogenes ATCC 19615, CAMHB with 3% lysed horse blood, read-out: MIC): 0.002 µg/mL (≈ 0.00107 µM); MIC ([4]; S. aureus MMX 8088 MRSA, CAMHB, read-out: MIC): 1 µg/mL (≈ 0.537 µM); MIC ([5]; S. pneumoniae ATCC 49619 PISP, CAMHB with 3% lysed horse blood, read-out: MIC): < 0.001 µg/mL; MIC ([6]; E. faecalis ATCC 29212 VSE, CAMHB, read-out: MIC): 0.5 µg/mL (≈ 0.268 µM); MIC ([7]; E. coli ATCC 25922, CAMHB, read-out: MIC): > 64 µg/mL; MIC ([8]; E. faecium MMX 708 VSE, CAMHB, read-out: MIC): 0.5 µg/mL (≈ 0.268 µM); MIC ([9]; S. aureus ATCC 29213 MSSA, CAMHB, read-out: MIC): 1 µg/mL (≈ 0.537 µM); MIC ([10]; E. faecalis MMX 486 VRE, CAMHB, read-out: MIC): 0.5 µg/mL (≈ 0.268 µM)
